US20180228801A1, “Method for Enhancing Learning Ability and Memory of Patients with Alzheimer's Disease using Mocetinostat” (National Taiwan Normal University, priority 2017, published 2018)

System: mice with oligomeric Aβ25-35 or saline injected into hippocampal CA1
Experiment: Morris Water Maze memory test
Assay type: in vivo, mice (C57BL/6J)
Protocol: Further, in some embodiments of the present invention, C57BL/6J strain male mice (12 week old) are used as a subject in need. After mice are allowed to adapt to the environment for 6 days, mice are anesthetized with Avertin (0.4 g/kg; purchased from Sigma). The mice are fixed on a stereotactic apparatus for operation, followed by injecting oligomeric Aβ25-35 (10 nM, 3 μL) into bilateral hippocampal CA1 (AP: […] relative to the bregma; ML: ±[…] relative to the midline; DV: […] relative to the skull) on day 7. MGCD0103 and equal volume of vehicle (saline) are intraperitoneal (i.p.) injected once a day from day 8, the day after said operation, for 29 days. On day 24, the Open Field Test is performed; on day 26, the EPM is performed; on day 28, the Y-maze is performed; on days 30 to 36, MWM is performed; and on day 37, mice are euthanized for pathological analysis.
MWM is a test for observing spatial learning and memory of mice by placing a platform in a wide pool. […] The behavior of finding the platform relates to a complex memory process within the brain, including 1) collecting the visual information (such as shape information of rectangles, circles and triangles) with respect to spatial positioning, and 2) processing, sorting, memorizing, fixing and recalling said information. In particular, the mice are placed in a pool filled with milky white non-toxic advertising pigment (used to make the water become opaque to hide the platform so that the mice may not know the position of the platform at the beginning), and are allowed to explore in search of the platform (which is fixed in a predetermined quadrant) underwater. The test is split into several phases as follows: 1) exploration phase: Place the mouse in the water and leave it there for 1 minute. If the mouse cannot find the platform in time, then move the mouse to the platform and leave there for 20 seconds. Then, place the mouse at a dry location and allow to rest until the next experiment; 2) acceptance phase: place the mouse into the water maze at four specific positions in turn in order to test whether the mouse can find the platform or not. Such training is repeated four times a day and continued for 4 days (each mouse is trained a total of 16 times). After 4 days of training, the learning ability of the mouse is measured in testing. After 24 hours of last testing trial, platform was removed and the mouse to freely swim in the pool and observe whether the mouse remembers the position of the platform or not (long-term spatial memory test). The swimming path is recorded by a CCD camera and analyzed with an image tracking system (EthoVision-XT).

[1] = saline-injected (normal) mice, high dose 0.5 mg/kg i.p.
[2] = saline-injected (normal) mice, low dose 0.01 mg/kg i.p.

time required to reach the platform, testing on day 5 (saline-injected (normal) mice treated with MGCD0103, dose not stated): significantly increased
learning curve, time required to reach the platform over 4 training days [1]: does not significantly decrease
time spent at the target quadrant after removing the platform (long-term memory) [1]: significantly decreased
learning curve, time required to reach the platform over 4 training days [2]: does not significantly decrease
time spent at the target quadrant after removing the platform (long-term memory) [2]: significantly decreased
SMILES: Nc1ccccc1NC(=O)c1ccc(CNc2nccc(-c3cccnc3)n2)cc1 [MGCD0103, N-(2-Aminophenyl)-4-[[(4-pyridin-3-ylpyrimidin-2-yl)amino]methyl] benzamide]
learning curve, time required to reach the platform over 4 training days (Aβ25-35 mice, high dose 0.5 mg/kg i.p.): reduced time required to reach the platform
time required to reach the platform, testing on day 5 (Aβ25-35 mice, high dose 0.5 mg/kg i.p., vs Aβ25-35 alone): significantly less
time spent at the target quadrant after removing the platform (long-term memory) (Aβ25-35 mice, high dose 0.5 mg/kg i.p., vs Aβ25-35 group without treatment): significantly increased
learning curve, time required to reach the platform over 4 training days (Aβ25-35 mice, low dose 0.01 mg/kg i.p.): reduced time required to reach the platform
time required to reach the platform, testing on day 5 (Aβ25-35 mice, low dose 0.01 mg/kg i.p., vs Aβ25-35 alone): significantly less
time spent at the target quadrant after removing the platform (long-term memory) (Aβ25-35 mice, low dose 0.01 mg/kg i.p., vs Aβ25-35 group without treatment): significantly increased
swimming velocity (all groups, low and high dose, saline or Aβ25-35 mice): same velocity
